Reference: ChEMBL document CHEMBL3120155, “4,4'-Diaminodiphenyl ether derivatives: synthesis, spectral, optical, thermal characterization and in-vitro cytotoxicity against Hep 3B and IMR 32 human cell lines” (Eur J Med Chem, 2014)
≈ marks a conversion by molar mass, not a printed value. Calls of active or inactive are those of the source. The calls are words filed in the database; no cut-off is given here.

Legend:
[1] = Cytotoxicity against human IMR32 cells after 6 hrs by MTT assay; format: functional, cell-based; conditions: IMR-32, 6 h
[2] = Cytotoxicity against human Hep3B cells after 6 hrs by MTT assay; format: functional, cell-based, Hep 3B2
IMR-32 [3] = experiment: Induction of apoptosis in human IMR32 cells assessed as cell shrinkage at IC50 after 6 hrs by microscopic analysis; format: functional, cell-based
Hep 3B2 [4] = experiment: Induction of apoptosis in human Hep3B cells assessed as cell shrinkage at IC50 after 6 hrs by microscopic analysis; format: functional, cell-based
IMR-32 [5] = experiment: Induction of apoptosis in human IMR32 cells assessed as DNA fragmentation at IC50 after 6 hrs by agarose gel electrophoresis; format: functional, cell-based
Hep 3B2 [6] = experiment: Induction of apoptosis in human Hep3B cells assessed as DNA fragmentation at IC50 after 6 hrs by agarose gel electrophoresis; format: functional, cell-based

| SMILES | IC50 [1] [mg/L] | IC50 [2] [mg/L] | Activity (IMR-32 [3]) | Activity (Hep 3B2 [4]) | Activity (IMR-32 [5]) | Activity (Hep 3B2 [6]) |
| --- | --- | --- | --- | --- | --- | --- |
| c1ccc2c(CNc3ccc(Oc4ccc(NCc5c6ccccc6cc6ccccc56)cc4)cc3)c3ccccc3cc2c1 | 65 (≈ 112 µM) | 50.1 (≈ 86.3 µM) | – | – | – | – |
| C(=N\c1ccc(Oc2ccc(/N=C/c3ccccc3)cc2)cc1)/c1ccccc1 | 42.9 (≈ 114 µM) | 29.8 (≈ 79.3 µM) | – | – | – | – |
| c1ccc2c(CNc3ccc(Oc4ccc(NCc5cccc6ccccc56)cc4)cc3)cccc2c1 | 89.1 (≈ 185 µM) | 89.1 (≈ 185 µM) | – | – | – | – |
| C(=N\c1ccc(Oc2ccc(/N=C/c3cc4ccccc4c4ccccc34)cc2)cc1)/c1cc2ccccc2c2ccccc12 | 63.1 (≈ 109 µM) | 44.7 (≈ 77.5 µM) | – | – | – | – |
| C(=N\c1ccc(Oc2ccc(/N=C/c3c4ccccc4cc4ccccc34)cc2)cc1)/c1c2ccccc2cc2ccccc12 | 50.3 (≈ 87.3 µM) | 59.6 (≈ 103 µM) | – | – | – | – |
| C(=N\c1ccc(Oc2ccc(/N=C/c3cccc4ccccc34)cc2)cc1)/c1cccc2ccccc12 | 33.5 (≈ 70.3 µM) | 14.1 (≈ 29.6 µM) | Active | Active | Active | Active |
| Nc1ccc(Oc2ccc(N)cc2)cc1 | 54.5 (≈ 272 µM) | 83.2 (≈ 415 µM) | – | – | – | – |
| c1ccc(CNc2ccc(Oc3ccc(NCc4ccccc4)cc3)cc2)cc1 | 31.9 (≈ 83.9 µM) | 28.2 (≈ 74.1 µM) | – | – | Active | Active |
